{"source": "patent US20180280321A1", "about": "“COMPOSITIONS AND METHODS THAT INHIBIT QUORUM SENSING” (The Office of Innovation Commercialization, priority 2015, published 2018)", "key": {"agr::P3 promoter [1]": {"test_system": "agr::P3 promoter", "type": "cell-based", "conditions": "agr-I S. epidermidis AH3408, 5 μg/mL OHM, 24 hours"}, "HEK293 cells": {"test_system": "HEK293 cells", "assay": "Eukaryotic cytotoxicity, XTT assay", "type": "cell-based, human", "conditions": "HEK293, 24-hour incubation, at concentrations required for agr-inhibition", "method": "(§1) Sigma-Aldrich, St. Louis, Mo.) and phenazine methosulfate (PMS; Sigma-Aldrich, St. Louis, Mo.) were used to perform an XTT assay as previously described (Scuderio et al., 1988, Cancer Res. 48:4827-4833). After 24 hours, spent media was removed and fresh media containing the indicated drug concentrations or vehicle was added to the cells and incubated for an additional 24 hours. […] Cell viability was assessed by the metabolic reduction of tetrazolium measured at OD490. Data are presented as percent viable cells compared to vehicle control."}, "HepG2 cells": {"test_system": "HepG2 cells", "assay": "Eukaryotic cytotoxicity, XTT assay", "type": "cell-based, human", "conditions": "hepatocyte cell line (HepG2), 24-hour incubation, at concentrations required for agr-inhibition", "method": "as §1"}, "A549 cells": {"test_system": "A549 cells", "assay": "Eukaryotic cytotoxicity, XTT assay", "type": "cell-based, human", "conditions": "A549, 24-hour incubation, at concentrations required for agr-inhibition", "method": "as §1"}, "S. aureus": {"test_system": "S. aureus", "type": "cell-based", "conditions": "at concentrations that inhibit quorum sensing"}, "MRSA isolate LAC [2]": {"test_system": "MRSA isolate LAC", "type": "in vivo, SKH1 mice", "conditions": "OHM injected subq near the site of infection four hours post-infection"}, "AgrAC and P2-FAM complex": {"biological_target": "AgrAC and P2-FAM complex (Staphylococcus aureus, UniProt P0A0I7)", "type": "binding, S. aureus", "conditions": "EMSA, 2 μM AgrAC"}, "MRSA isolate LAC [3]": {"test_system": "MRSA isolate LAC", "type": "in vivo", "conditions": "STZ-treated diabetic C57BL/6 mice, OHM given along with 5×10^7 CFU LAC"}, "[4]": {"test_system": "RNAIII, psm α and hla transcription", "type": "cell-based, S. aureus"}, "human PMNs": {"test_system": "human PMNs", "type": "cell-based", "conditions": "supernatant from OHM- versus vehicle-treated LAC, 5 μg/mL OHM, two hours"}, "agr::P3 promoter [5]": {"test_system": "agr::P3 promoter", "type": "cell-based, S. aureus"}, "AgrC-WT isolate AH3469": {"test_system": "AgrC-WT isolate AH3469", "type": "cell-based, S. aureus"}, "USA300 isolate LAC": {"test_system": "USA300 isolate LAC", "type": "in vivo, SKH1 mice", "conditions": "for bacterial burden at the site of infection: LAC infected, single OHM treatment"}, "[6]": {"biological_target": "AgrAC binding to agr promoter DNA (P2-FAM) (Staphylococcus aureus, UniProt P0A0I7)", "set-up": "species or system S. aureus", "conditions": "bead-based flow cytometry, biotinylated AgrAC on SA beads, P2-FAM 1.6 μM"}, "[7]": {"test_system": "S. aureus LAC / LACΔagr in human PMNs", "type": "cell-based"}, "[8]": {"test_system": "S. aureus LAC / LACΔagr in RAW 264.7 macrophages", "type": "cell-based, mouse", "conditions": "LAC pre-treated with 5 μg/mL OHM, RAW 264.7, MOI 1:1; vs vehicle"}, "AgrAC-C199S": {"biological_target": "AgrAC-C199S (Staphylococcus aureus, UniProt P0A0I7, C199S)", "type": "binding, S. aureus", "conditions": "SPR, His-tagged AgrAC-C199S on NTA biosensor, 25° C."}}, "note": "“Also recorded” adds a separate entry of the source. Read-outs that look alike come from different tables or passages of the source."}
{"smiles": "O=C1c2cc(O)cc(O)c2C(=O)c2c(O)cc(CO)cc21", "note": "[OHM, 1,3,8-trihydroxy-6-(hydroxymethyl)anthracene-9,10-dione]", "values": [{"measurement": "agr activation (agr::P3 promoter)", "setting": "agr::P3 promoter [1]", "value": "significantly inhibited"}, {"measurement": "cell viability (toxicity)", "setting": "HEK293 cells", "value": "non-toxic"}, {"measurement": "cell viability (toxicity)", "setting": "HepG2 cells", "value": "non-toxic"}, {"measurement": "cell viability (toxicity)", "setting": "A549 cells", "value": "non-toxic"}, {"measurement": "bacterial growth (OD600)", "setting": "S. aureus", "value": "do not impact bacterial growth; also recorded: absence of bactericidal or bacteriostatic effects"}, {"measurement": "abscess formation", "setting": "MRSA isolate LAC [2]", "value": "limits abscess formation"}, {"measurement": "ulcer area (dermonecrosis)", "setting": "MRSA isolate LAC [2]", "value": "limits abscess formation and dermonecrosis"}, {"measurement": "inhibition of AgrAC binding to agr promoter DNA", "setting": "AgrAC and P2-FAM complex", "value": "dose-dependent inhibition"}, {"measurement": "abscess formation", "setting": "MRSA isolate LAC [3]", "value": "limits abscess formation"}, {"measurement": "ulcer formation (dermonecrosis)", "setting": "MRSA isolate LAC [3]", "value": "limits abscess formation and dermonecrosis"}, {"measurement": "transcription of RNAIII", "setting": "[4]", "value": "decreased transcription"}, {"measurement": "transcription of alpha-hemolysin (hla)", "setting": "[4]", "value": "decreased transcription"}, {"measurement": "PMN survival in the presence of S. aureus supernatant", "setting": "human PMNs", "value": "significantly increased survival"}, {"measurement": "agr::P3 promoter activation (quorum sensing)", "setting": "agr::P3 promoter [5]; agr-I, agr-II, agr-III, agr-IV reporter strains, OHM 100 to 0.05 μM", "value": "inhibited quorum sensing by all four agr types"}, {"measurement": "in vitro agr-I transcription inhibition activity", "setting": "agr::P3 promoter [5]; among polyhydroxyanthraquinones from Penicillium restrictum", "value": "most potent"}, {"measurement": "agr-mediated Hla expression (lysis of rabbit RBCs)", "setting": "AgrC-WT isolate AH3469", "value": "inhibited Hla expression"}, {"measurement": "bacterial burden at the site of infection", "setting": "USA300 isolate LAC; day seven post-infection", "value": "reduced"}, {"measurement": "bacterial burden at the site of infection", "setting": "USA300 isolate LAC; day three post-infection", "value": "reduced"}, {"measurement": "differences between OHM and vehicle treated mice (abscesses and ulcers)", "setting": "USA300 isolate LAC; mouse, in vivo", "value": "no differences were observed"}, {"measurement": "histological analysis of skin sections: abscess formation and ulceration", "setting": "USA300 isolate LAC; mouse, in vivo", "value": "overall reduction in abscess formation and ulceration"}, {"measurement": "local Hla expression at the site of infection (western blot)", "setting": "USA300 isolate LAC; mouse, in vivo", "value": "decreased local Hla expression"}, {"measurement": "local IL-1β in abscess tissue (multiplex)", "setting": "USA300 isolate LAC; mouse, in vivo", "value": "significant reductions"}, {"measurement": "local IL-6 in abscess tissue (multiplex)", "setting": "USA300 isolate LAC; mouse, in vivo", "value": "significant reductions"}, {"measurement": "local TNFα in abscess tissue (multiplex)", "setting": "USA300 isolate LAC; mouse, in vivo", "value": "significant reductions"}, {"measurement": "transcription of il-1β in abscess tissue", "setting": "USA300 isolate LAC; mouse, in vivo", "value": "reduced transcription"}, {"measurement": "transcription of il-6 in abscess tissue", "setting": "USA300 isolate LAC; mouse, in vivo", "value": "reduced transcription"}, {"measurement": "transcription of nlrp3 in abscess tissue", "setting": "USA300 isolate LAC; mouse, in vivo", "value": "decreased transcription"}, {"measurement": "transcription of tnfα in abscess tissue", "setting": "USA300 isolate LAC; mouse, in vivo", "value": "reduced transcription"}, {"measurement": "morbidity (assessed by weight loss)", "setting": "USA300 isolate LAC; mouse, in vivo, 0.25 mg/kg", "value": "significantly inhibited"}, {"measurement": "abscess formation", "setting": "USA300 isolate LAC; mouse, in vivo, sc, 0.25 mg/kg", "value": "significantly inhibited"}, {"measurement": "ulcer (dermonecrosis) formation", "setting": "USA300 isolate LAC; mouse, in vivo, sc, 0.25 mg/kg", "value": "significantly inhibited"}, {"measurement": "inhibition of AgrAC binding to agr promoter DNA", "setting": "[6]", "value": "dose-dependent inhibition"}, {"measurement": "intracellular killing by human PMNs", "setting": "[7]; LAC pre-treated with 5 μg/mL OHM, MOI 1:1, vs vehicle", "value": "significantly increased intracellular killing"}, {"measurement": "opsonophagocytosis: total number and percent of bacteria phagocytosed", "setting": "[7]; bacteria pre-treated with vehicle or OHM, human PMNs", "value": "equivalent"}, {"measurement": "intracellular killing by mouse macrophages", "setting": "[8]", "value": "significantly increased intracellular killing"}, {"measurement": "direct binding to immobilized AgrAC", "setting": "AgrAC-C199S", "value": "bound directly"}]}
